target: TAAR1 (Mus musculus, UniProt Q923Y8); assay: TAAR1 radioligand binding, membranes of stably transfected HEK293 cells (mouse); details: mouse/rat; cell not marked 'rat'; radioligand [3H]-rac-2-(1,2,3,4-tetrahydro-1-naphthyl)-2-imidazoline, 4° C.; read-out: Ki (μM) mouse/rat
Summary of the method: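 Competition binding on membranes from HEK293 cells stably expressing the TAAR1 species ortholog, in HEPES-NaOH pH 7.0 with 10 mM MgCl2 and 2 mM CaCl2, 30 min at 4° C with [3H]-rac-2-(1,2,3,4-tetrahydro-1-naphthyl)-2-imidazoline. Competitors 10 pM–30 μM, duplicates; non-specific binding with 10 μM unlabelled ligand; filtration and scintillation counting.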

Compound	Ki [µM]
C[C@]1(CCc2ccc(F)cc2)COC(N)=N1 [Example 255, (S)-4-[2-(4-Fluoro-phenyl)-ethyl]-4-methyl-4,5-dihydro-oxazol-2-ylamine]	0.0074
NC1=N[C@@H](CCc2ccc(Cl)cc2)CO1 [Example 256, (S)-4-[2-(4-Chloro-phenyl)-ethyl]-4,5-dihydro-oxazol-2-ylamine]	0.0006
NC1=N[C@@H](CC2(c3ccc(Cl)cc3)CC2)CO1 [Example 257, (S)-4-[1-(4-Chloro-phenyl)-cyclopropylmethyl]-4,5-dihydro-oxazol-2-ylamine]	0.0074
NC1=N[C@@H](c2cc(F)ccc2C(F)(F)F)CO1 [Example 259, (+)-(S)-4-(5-Fluoro-2-trifluoromethyl-phenyl)-4,5-dihydro-oxazol-2-ylamine]	0.0088
NC1=N[C@@H](c2ccccc2Br)CO1 [Example 265, (+)-(S)-4-(2-Bromo-phenyl)-4,5-dihydro-oxazol-2-ylamine]	0.0009
C[C@]1(c2cc(F)cc(Cl)c2)COC(N)=N1 [Example 266, (S)-4-(3-Chloro-5-fluoro-phenyl)-4-methyl-4,5-dihydro-oxazol-2-ylamine]	0.0016
NC1=N[C@@H](CCc2ccccc2Cl)CO1 [Example 267, (S)-4-[2-(2-Chloro-phenyl)-ethyl]-4,5-dihydro-oxazol-2-ylamine]	0.0011
C[C@]1(c2cc(Cl)ccc2F)COC(N)=N1 [Example 270, (S)-4-(5-Chloro-2-fluoro-phenyl)-4-methyl-4,5-dihydro-oxazol-2-ylamine]	0.0016
C[C@]1(c2ccc(F)c(Cl)c2)COC(N)=N1 [Example 277, (S)-4-(3-chloro-4-fluoro-phenyl)-4-methyl-4,5-dihydro-oxazol-2-ylamine]	0.0016
C[C@]1(c2cc(F)c(Cl)cc2F)COC(N)=N1 [Example 289, (S)-4-(4-Chloro-2,5-difluoro-phenyl)-4-methyl-4,5-dihydro-oxazol-2-ylamine]	0.0017
CC[C@@H](C[C@H]1COC(N)=N1)c1ccccc1 [Example 292, (S)-4-((S)-2-Phenyl-butyl)-4,5-dihydro-oxazol-2-ylamine]	0.0035
CC[C@H](C[C@H]1COC(N)=N1)c1ccccc1 [Example 293, (S)-4-((R)-2-Phenyl-butyl)-4,5-dihydro-oxazol-2-ylamine]	0.0062
NC1=N[C@H](c2ccc(Cl)cc2Cl)CO1 [Example 295, (−)-(R)-4-(2,4-Dichloro-phenyl)-4,5-dihydro-oxazol-2-ylamine]	0.0082
NC1=N[C@@H](c2ccc(Cl)cc2Cl)CO1 [Example 296, (+)-(S)-4-(2,4-Dichloro-phenyl)-4,5-dihydro-oxazol-2-ylamine]	0.0004
NC1=N[C@@H](c2cc(Cl)ccc2Cl)CO1 [Example 298, (+)-(S)-4-(2,5-Dichloro-phenyl)-4,5-dihydro-oxazol-2-ylamine]	0.0004
NC1=N[C@@H](c2ccc(F)c(F)c2F)CO1 [Example 301, (+)-(S)-4-(2,3,4-Trifluoro-phenyl)-4,5-dihydro-oxazol-2-ylamine]	0.0023
NC1=N[C@@H](CCc2c(F)cccc2Cl)CO1 [Example 303, (S)-4-[2-(2-Chloro-6-fluoro-phenyl)-ethyl]-4,5-dihydro-oxazol-2-ylamine]	0.0011
C[C@]1(CCc2ccc(Cl)cc2Cl)COC(N)=N1 [Example 304, (S)-4-[2-(2,4-Dichloro-phenyl)-ethyl]-4-methyl-4,5-dihydro-oxazol-2-ylamine]	0.0033
C[C@]1(c2cc(F)c(F)c(F)c2)COC(N)=N1 [Example 306, (S)-4-Methyl-4-(3,4,5-trifluoro-phenyl)-4,5-dihydro-oxazol-2-ylamine]	0.0027
Cc1cc([C@@]2(C)COC(N)=N2)c(F)cc1Cl [Example 308, (S)-4-(4-Chloro-2-fluoro-5-methyl-phenyl)-4-methyl-4,5-dihydro-oxazol-2-ylamine]	0.0009
CC[C@]1(c2ccc(Cl)c(Cl)c2)COC(N)=N1 [Example 328, (S)-4-(3,4-Dichloro-phenyl)-4-ethyl-4,5-dihydro-oxazol-2-ylamine]	0.0052
